The results in this text go back to patent publication US20140018384A1, “QUINOLINONE DERIVATIVES FOR USE IN THE TREATMENT OF AN AUTOIMMUNE DISEASE AND/OR AN INFLAMMATORY DISEASE” (PRONOXIS AB, priority 2011, published 2014).

SMILES strings stand for the structures. Like-named read-outs stand apart in the source and are kept apart here.

The assay concerns PLB-985 cells. Briefly: ROS production (isoluminol/HRP luminescence) in PLB-985 cells, Biological Example 1. The format is cell-based. The procedure: To cells (HL-60 or PLB-985) in HBSS medium was added compound (25 or 50 μM), isoluminol and Horse Radish Peroxidase, fraction II. Luminescence was measured for 10-30 minutes and the area under the […] curve was divided by that from a control experiment to give the activity expressed as fold change.
Each assay indicated below was performed at a different site, at a different time, by different personnel and/or using different cell lines, concentrations and controls. The cell line, concentration of example compound and control used in respect of each assay were as indicated below. The values obtained from these different setups (each using an otherwise identical assay) are given as Activity A, B, C, D or E in Table 5 below. The values are expressed as fold increase of NADPH activity in the presence of the relevant of compound (as indicated below) compared to the relevant control (as indicated below).
Activity A: HL-60 cells; 50 μM compound vs. blank Activity B: PLB-985 cells; 25 μM compound vs. blank Activity C, D and E: PLB-985 cells; 25 μM compound vs. DMSO

The mark [1] stands for this setting: 25 μM compound vs. DMSO, setup E, read-out: Activity E (fold increase of NADPH activity compared to control).
Setting [2] is: 25 μM compound vs. DMSO, setup D, read-out: Activity D (fold increase of NADPH activity compared to control).
Setting [3] is: 25 μM compound vs. DMSO, setup C, read-out: Activity C (fold increase of NADPH activity compared to control).
Setting [4] is: 25 μM compound vs. blank, read-out: Activity B (fold increase of NADPH activity compared to control).

For the compound `COc1cc(OC)c2c(c1)c(=O)c(C(=O)c1ccc(F)cc1)cn2CC(=O)Nc1ccc(Cl)cc1` [Example 42, N-(4-Chlorophenyl)-2-[6,8-dimethoxy-3-(4-fluorobenzoyl)-4-oxo-1-quinolinyl]acetamide], the fold induction at 25 µM under setting [1] was 2.5.
In the case of `COc1ccc2c(n1)c(=O)c(C(=O)c1ccc3ccccc3c1)cn2CC(=O)Nc1ccc(Cl)cc1` [Example 21, N-(4-Chlorophenyl)-2-[6-methoxy-3-(2-naphthoyl)-4-oxo-(1,5-naphthyridin-1-yl)]acetamide], the fold induction at 25 µM came to 68.7 under setting [2] and 9.2 under setting [1].
Regarding `COc1ccc2c(n1)c(=O)c(C(=O)c1ccc(F)cc1)cn2CC(=O)Nc1ccc(C(F)(F)F)cc1` [Example 40, 2-[3-(4-Fluorobenzoyl)-6-methoxy-4-oxo-1,5-naphthyridin-1-yl]-N-(4-trifluoromethylphenyl)acetamide], the fold induction at 25 µM under setting [1] was 73.
Regarding `O=C(Cn1cc(C(=O)c2ccc(Cl)cc2)c(=O)c2cc3c(cc21)OCO3)Nc1ccc2c(c1)OCCO2` [Example 60, 2-[3-(4-Chlorobenzoyl)-6,7-methylenedioxy-4-oxo-1-quinolinyl]-N-(3,4-ethylenedioxyphenyl)acetamide], the fold induction at 25 µM by setting is: under setting [3], 33.3; under setting [4], 51.8.
`O=C(Cn1cc(C(=O)c2ccc3ccccc3c2)c(=O)c2cc3c(cc21)OCO3)Nc1ccc(C(F)(F)F)cc1` [Example 11, 2-[6,7-Methylenedioxy-3-(2-naphthoyl)-4-oxo-1-quinolinyl]-N-(4-trifluoromethylphenyl)acetamide]: the fold induction at 25 µM under setting [1] was 8.8.
On to `COc1ccc(C(=O)c2cn(CC(=O)Nc3ccc(Cl)cc3)c3cc4c(cc3c2=O)OCO4)cc1` [Example 29, 2-[3-p-Anisoyl-6,7-methylenedioxy-4-oxo-1-quinolinyl]-N-(4-chlorophenyl)acetamide], for which the fold induction at 25 µM under setting [3] turned out to be 55.
Consider `O=C(Cn1cc(C(=O)c2ccc(F)cc2)c(=O)c2cc3c(cc21)OCO3)Nc1ccc(Cl)cc1` [Example 89, N-(4-Chlorophenyl)-2-[3-(4-fluorobenzoyl)-6,7-methylenedioxy-4-oxo-1-quinolinyl]acetamide], for which the fold induction at 25 µM reads like this: under setting [3], 34.4; under setting [2], 17.1; under setting [4], 33.
With `O=C(Cn1cc(C(=O)c2ccc3ccccc3c2)c(=O)c2cc3c(cc21)OCO3)Nc1ccccc1Cl` [Example 10, N-(2-ChlorophenyI)-2-[6,7-methylenedioxy-3-(2-naphthoyl)-4-oxo-1-quinolinyl]acetamide], the fold induction at 25 µM under setting [1] was found to be 1.7.
Regarding `CCc1ccc(C(=O)c2cn(CC(=O)Nc3ccc(OC)c(OC)c3)c3cc4c(cc3c2=O)OCO4)cc1` [Example 52, N-(3,4-Dimethoxyphenyl)-2-[3-(4-ethylbenzoyl)-6,7-methylenedioxy-4-oxo-1-quinolinyl]acetamide], the fold induction at 25 µM runs as follows: under setting [3], 55.6; under setting [4], 154.
For the compound `O=C(Cn1cc(C(=O)c2cccc(F)c2)c(=O)c2cc3c(cc21)OCO3)Nc1ccc(Cl)cc1` [Example 32, N-(4-Chlorophenyl)-2-[3-(3-fluorobenzoyl)-6,7-methylenedioxy-4-oxo-1-quinolinyl]acetamide], under setting [3], the fold induction at 25 µM was determined as 47.8.
Regarding `CCOc1ccc2c(c1)c(=O)c(C(=O)c1ccc(F)cc1)cn2CC(=O)Nc1ccc(OC)cc1` [Example 102, N-p-Anisyl-2-[6-ethoxy-3-(4-fluorobenzoyl)-4-oxo-1-quinolinyl]acetamide], the fold induction at 25 µM under setting [2] worked out at 2.1.
Consider `CCOc1ccc(C(=O)c2cn(CC(=O)Nc3ccc4c(c3)OCCO4)c3cc4c(cc3c2=O)OCO4)cc1` [Example 66, 2-[3-(4-Ethoxybenzoyl)-6,7-methylenedioxy-4-oxo-1-quinolinyl]-N-(3,4-ethylenedioxyphenyl)acetamide], for which the fold induction at 25 µM runs as follows: under setting [3], 2.5; under setting [4], 2.7.
Consider `Cc1ccc(NC(=O)Cn2cc(C(=O)c3ccc4ccccc4c3)c(=O)c3cc4c(cc32)OCO4)cc1` [Example 2, 2-[6,7-Methylenedioxy-3-(2-naphthoyl)-4-oxo-1-quinolinyl]-N-p-tolylacetamide], for which the fold induction at 25 µM under setting [1] is 10.
